From ChEMBL document CHEMBL1201862, “PubChem BioAssay data set” (2004)
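Following 48 hours of exposure in 96-well plates, responses at five concentrations were used to interpolate endpoints linearly. GI50 = concentration required for 50% inhibition of growth.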 Activity calls are given as the source filed them. No stated cut-off is given here; in the data, active = GI50 up to about 1.1 µM and inactive = higher.

Experiments:
Assay in all cases: NCI-60 cell line screen, 48 h
[1] = tested on: 786-0
[2] = tested on: A549
[3] = tested on: ACHN
[4] = tested on: COLO 205
[5] = tested on: DLD-1
[6] = tested on: DMS-273
[7] = tested on: HCC 2998
[8] = tested on: HCT-116
[9] = tested on: HCT-15
[10] = tested on: HOP-62
[11] = tested on: HOP-92
[12] = tested on: HT-29
[13] = tested on: IGROV-1
[14] = tested on: K562
[15] = tested on: KM-20L2
[16] = tested on: KM12
[17] = tested on: LOX IMVI
[18] = tested on: LXFL 529
[19] = tested on: M14
[20] = tested on: M19-MEL
[21] = tested on: MOLT-4
[22] = tested on: Malme-3M
[23] = tested on: NCI-H226
[24] = tested on: NCI-H23
[25] = tested on: NCI-H460
[26] = tested on: OVCAR-3
[27] = tested on: OVCAR-4
[28] = tested on: OVCAR-5
[29] = tested on: OVCAR-8
[30] = tested on: RPMI-8226
[31] = tested on: RXF 631
[32] = tested on: SF-268
[33] = tested on: SF-295
[34] = tested on: SF-539
[35] = tested on: SK-MEL-28
[36] = tested on: SK-MEL-2
[37] = tested on: SK-OV-3
[38] = tested on: SN12C
[39] = tested on: SNB-19
[40] = tested on: SNB-75
[41] = tested on: SNB-78
[42] = tested on: SR
[43] = tested on: SW-620
[44] = tested on: TK-10
[45] = tested on: U-251
[46] = tested on: UACC-257
[47] = tested on: UO-31
[48] = tested on: XF498
[49] = tested on: A498
[50] = tested on: BT-549
[51] = tested on: CAKI-1
[52] = tested on: CCRF-CEM
[53] = tested on: DU-145
[54] = tested on: EKVX
[55] = tested on: HL-60
[56] = tested on: MCF7
[57] = tested on: MDA-MB-231
[58] = tested on: MDA-MB-435
[59] = tested on: NCI-H522
[60] = tested on: NCI/ADR-RES
[61] = tested on: PC-3
[62] = tested on: RXF 393
[63] = tested on: SK-MEL-5
[64] = tested on: UACC-62

Measured: GI50

O=C(Cc1nc2ccccc2s1)C(=O)Nc1ccc(Cl)cc1Cl
> 100000 nM: [9]
inactive: [1] > 100000 nM | [2] > 100000 nM | [3] > 100000 nM | [4] > 100000 nM | [5] > 100000 nM | [6] > 100000 nM | [7] > 100000 nM | [8] > 100000 nM | [10] 39900 nM | [11] 65800 nM | [12] > 100000 nM | [13] > 100000 nM | [14] > 100000 nM | [15] > 100000 nM | [16] > 100000 nM | [17] > 100000 nM | [18] > 100000 nM | [19] > 100000 nM | [20] > 100000 nM | [21] > 100000 nM | [22] > 100000 nM | [23] 77600 nM | [24] 54000 nM | [25] > 100000 nM | [26] > 100000 nM | [27] > 100000 nM | [28] > 100000 nM | [29] > 100000 nM | [30] > 100000 nM | [31] > 100000 nM | [32] > 100000 nM | [33] > 100000 nM | [34] > 100000 nM | [35] > 100000 nM | [36] > 100000 nM | [37] > 100000 nM | [38] > 100000 nM | [39] > 100000 nM | [40] 47400 nM | [41] > 100000 nM | [42] > 100000 nM | [43] > 100000 nM | [44] > 100000 nM | [45] > 100000 nM | [46] > 100000 nM | [47] > 100000 nM | [48] > 100000 nM

COc1ccc2nc3ccccc3c(NCCCCN(C)CCCl)c2c1
active: [1] 17.7 nM | [49] 43.5 nM | [2] 28.6 nM | [3] < 17.4 nM | [50] < 10 nM | [51] 28.4 nM | [52] 13 nM | [4] < 10 nM | [5] 47.1 nM | [6] 21.8 nM | [53] 53.7 nM | [54] 393 nM | [7] 89.3 nM | [8] 19.9 nM | [55] 18.8 nM | [10] 82 nM | [11] 60.4 nM | [12] 17.8 nM | [13] 40.8 nM | [14] 23.1 nM | [15] 27.7 nM | [16] 40.7 nM | [17] 33.5 nM | [18] < 13 nM | [19] 71.1 nM | [56] < 10 nM | [57] 144 nM | [58] 78.3 nM | [21] < 10 nM | [22] 330 nM | [23] 69.2 nM | [24] 51.3 nM | [25] 14 nM | [59] < 14.3 nM | [60] 61.1 nM | [26] 39.2 nM | [27] 88.9 nM | [28] 186 nM | [29] 25.4 nM | [61] 56.9 nM | [30] < 10 nM | [62] 91.4 nM | [31] < 18.5 nM | [32] 18.6 nM | [33] 65.2 nM | [34] 68.9 nM | [35] 367 nM | [36] 146 nM | [63] 77.3 nM | [37] 77.5 nM | [38] 18.4 nM | [39] 191 nM | [40] 122 nM | [41] 59.6 nM | [42] < 10 nM | [43] 15.1 nM | [44] 638 nM | [45] 34.4 nM | [46] 581 nM | [64] 37.3 nM | [47] 107 nM | [48] 36.9 nM
18.5 nM: [9]
